The record followed here is patent US8318723B2, “Pyrazine compounds, their use and methods of preparation” (Boehringer Ingelheim International GmbH, priority 2006, dated 2012).

This assay deals with PIM-2 (Homo sapiens, UniProt Q9P1W9). The assay is described as follows: PIM-2 assay, IC50 determination (luciferase-luciferin ATP depletion, 10-point dose response). The assay is classed as biochemical. The conditions noted are these: 10 nM PIM-2, 1 μM ATP, 50 μM peptide substrate, 15 minutes at room temperature.
Chain of PIM-2 (Q9P1W9 whole entry): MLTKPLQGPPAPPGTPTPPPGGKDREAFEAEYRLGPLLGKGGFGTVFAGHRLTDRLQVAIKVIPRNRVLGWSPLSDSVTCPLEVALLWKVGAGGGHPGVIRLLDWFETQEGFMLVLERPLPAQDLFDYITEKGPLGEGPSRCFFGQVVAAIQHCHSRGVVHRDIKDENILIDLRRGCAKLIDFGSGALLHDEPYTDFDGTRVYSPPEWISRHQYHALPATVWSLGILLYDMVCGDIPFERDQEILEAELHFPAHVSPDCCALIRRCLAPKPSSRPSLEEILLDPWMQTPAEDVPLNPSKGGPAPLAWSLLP
Protocol: The screen utilizes the Zymark Allegro UHTS system to dispense reagents, buffers and test compounds. To Greiner 384-well, white Lumitrac-200 plates, 20 μL/well of 20 nM PIM-2 (10 nM final assay concentration) in assay buffer (25 mM HEPES, pH 7.5, 10 mM MgCl2, 50 mM KCl, 0.2% CHAPS, 100 μM Na3VO4, 0.2% BSA and 200 μM TCEP) is delivered, followed by 10 μL/well of test compounds (3 μg/mL final assay concentration in 1% DMSO) that were previously dissolved in DMSO and diluted in assay buffer. A 10 μL volume of a solution containing 4 μM ATP (1 μM final assay concentration) and 20 μM peptide substrate (Biotin-[sequence], 5 μM final assay concentration) diluted in assay buffer is added to each well and the contents of the wells are mixed. […] Positive control wells receive 10 μL/well of assay buffer in lieu of compound. The kinase reaction mixture is incubated for 60 minutes at room temperature. A 40 μL/well of ATP detection reagent is then added to the reaction mixture. The assay plates are read on an Analyst (Molecular Devices) in luminescence mode following additional 15 minutes of incubation at room temperature. Luminescence signals are converted to percent of control (POC) values using the formula: POC=(BCTRL−Signal)÷(BCTRL−PCTRL), where Signal is the test well signal, BCTRL is the average of background control well signals on the plate and PCTRL is the average of positive control well signals on the plate.
The IC50 of the compounds is determined with a modification of the above method. The assay is performed in 96-well Lumitrac-200, white, plates. Test compounds dissolved in DMSO (5 mg/mL) are serially diluted 1 to 3 in DMSO for 10-point dose response. The DMSO dilutions are further diluted in the assay buffer and 15 μL of this dilution is added to the assay plate, for a final starting assay concentration of 5 μg/mL in 1% DMSO. A 15 μL volume of 40 nM PIM-2 followed by 30 μL of a solution containing 2 μM ATP and 100 μM peptide substrate, all diluted in assay buffer, is added to each well for a final assay concentration of 10 nM PIM-2, 1 μM ATP, and 50 μM peptide substrate. The kinase reaction mixture is incubated for 15 minutes at room temperature. A 60 μL/well of ATP detection reagent is then added to the reaction mixture. The assay plates are read on an Analyst (Molecular Devices) in luminescence mode following additional 15 minutes of incubation at room temperature. IC50 is determined by fitting the POC of the dose response data to a 4-parameter logistic equation.
`CN1CCCN(c2cncc(-c3cccc(/C=C/C(N)=O)c3)n2)CC1` [compound 40, (E)-3-{3-[6-(4-Methyl-[1,4]diazepan-1-yl)-pyrazin-2-yl]-phenyl}-acrylamide] gave a concentration for half-maximal inhibition (IC50) of 1200 nM.

For the compound `CN1CCCN(c2cncc(-c3cccc(/C=C/C(=O)NS(C)(=O)=O)c3)n2)CC1` [compound 44, N-((E)-3-{3-[6-(4-Methyl-perhydro-1,4-diazepin-1-yl)-pyrazin-2-yl]-phenyl}-acryloyl)-methanesulfonamide], the IC50 amounted to 2400 nM. Against the preceding compound, the IC50 is about 2-fold higher.

`CN1CCCN(c2cccc(-c3cccc(/C=C/C(=O)O)c3)n2)CC1` [compound 36, (E)-3-{3-[6-(4-Methyl-[1,4]diazepan-1-yl)-pyridin-2-yl]-phenyl}-acrylic acid] showed an IC50 of 46 nM. This IC50 is about 52-fold lower than that of the compound before.

As for `CC(=O)NCCNc1cncc(-c2cccc(/C=C/C(=O)O)c2)n1` [compound 21, (E)-3-{3-[6-(2-Acetylamino-ethylamino)-pyrazin-2-yl]-phenyl}-acrylic acid], half-maximal inhibition (IC50) was put at 1020 nM. This IC50 is about 22-fold higher than that of the compound before.

As for `O=C(O)/C=C/c1cccc(-c2cncc(N3CCC(CO)CC3)n2)c1` [compound 33, (E)-3-{3-[6-(4-Hydroxymethyl-piperidin-1-yl)-pyrazin-2-yl]-phenyl}-acrylic acid], the concentration for half-maximal inhibition (IC50) was 2100 nM. This IC50 lies about 2.1-fold higher than the previous one.

On to `COCCNc1cncc(-c2cccc(/C=C/C(=O)O)c2)n1` [compound 20, (E)-3-{3-[6-(2-Methoxy-ethylamino)-pyrazin-2-yl]-phenyl}-acrylic acid], for which the IC50 was 1200 nM.

In the case of `NCCCCNc1cncc(-c2cccc(/C=C/C(=O)O)c2)n1` [compound 5, (E)-3-{3-[6-(4-Amino-butylamino)-pyrazin-2-yl]-phenyl}-acrylic acid], the IC50 is 22 nM.

Regarding `O=C(O)/C=C/c1cccc(-c2cncc(N3CCOCC3)n2)c1` [compound 34, (E)-3-[3-(6-Morpholin-4-yl-pyrazin-2-yl)-phenyl]-acrylic acid], the IC50 amounted to 1700 nM.

`CNCCN(C)c1cncc(-c2cccc(/C=C/C(=O)O)c2)n1` [compound 13, (E)-3-(3-{6-[Methyl-(2-methylamino-ethyl)-amino]-pyrazin-2-yl}-phenyl)-acrylic acid]: the midpoint of inhibition, the IC50, lay at 240 nM.

`CN(C)C1CCN(c2cncc(-c3cccc(/C=C/C(=O)O)c3)n2)CC1` [compound 24, (E)-3-{3-[6-(4-Dimethylamino-piperidin-1-yl)-pyrazin-2-yl]-phenyl}-acrylic acid] registered an IC50 of 72 nM.

Compound `O=C(O)/C=C/c1cccc(-c2cncc(N3CCCCCC3)n2)c1` [compound 35, (E)-3-[3-(6-Azepan-1-yl-pyrazin-2-yl)-phenyl]-acrylic acid] came in with an IC50 of 3300 nM.

Regarding `O=C(O)/C=C/c1cccc(-c2cncc(N3CCC(O)CC3)n2)c1` [compound 32, (E)-3-{3-[6-(4-Hydroxy-piperidin-1-yl)-pyrazin-2-yl]-phenyl}-acrylic acid], the midpoint of inhibition, the IC50, lay at 1050 nM.

For `CCNCCCNc1cncc(-c2cccc(/C=C/C(=O)O)c2)n1` [compound 11, (E)-3-{3-[6-(3-Ethylamino-propylamino)-pyrazin-2-yl]-phenyl}-acrylic acid], the IC50 came out at 120 nM.

`CN(C)C1CCN(c2cncc(-c3cccc(/C=C/C(=O)O)c3)n2)C1` (centres unmarked) [compound 30, (E)-3-{3-[6-(3-Dimethylamino-pyrrolidin-1-yl)-pyrazin-2-yl]-phenyl}-acrylic acid] came in with an IC50 of 270 nM.

Take `NCCCNc1cncc(-c2cccc(/C=C/C(=O)O)c2)n1` [compound 6, (E)-3-{3-[6-(3-Amino-propylamino)-pyrazin-2-yl]-phenyl}-acrylic acid]: the IC50 amounted to 27 nM.

Regarding `NC(=O)CCNc1cncc(-c2cccc(/C=C/C(=O)O)c2)n1` [compound 16, (E)-3-{3-[6-(2-Carbamoyl-ethylamino)-pyrazin-2-yl]-phenyl}-acrylic acid], it took 250 nM to reach half-maximal inhibition (IC50).

`CNCCCN(C)c1cncc(-c2cccc(/C=C/C(=O)O)c2)n1` [compound 10, (E)-3-(3-{6-[Methyl-(3-methylamino-propyl)-amino]-pyrazin-2-yl}-phenyl)-acrylic acid] had an IC50 of 110 nM.
